Values after ≈ are worked out from the molar mass of the structure shown.
Key:
[1] = Equilibrium solubility in 0.5% methylcellulose/2% Tween-80 in water; assay type: physicochemical
[2] = AUC (0 to infinity) in Sprague-Dawley rat at 3 mg/kg, po; assay type: ADME, organism-based; parameters: time infinity, dose 3 mg/kg, route oral; conditions: plasma
[3] = Tmax in Sprague-Dawley rat 3 mg/kg, po; assay type: ADME, organism-based; parameters: dose 3 mg/kg, route oral; conditions: in vivo
[4] = Oral bioavailability in Sprague-Dawley rat 3 mg/kg; assay type: ADME, organism-based; conditions: in vivo
[5] = AUC (0 to infinity) in C57 mouse at 3 mg/kg, po; assay type: ADME, organism-based; parameters: time infinity, dose 3 mg/kg, route oral; conditions: plasma
[6] = Cmax in Sprague-Dawley rat at 3 mg/kg, po; assay type: ADME, organism-based; parameters: dose 3 mg/kg, route oral; conditions: in vivo
[7] = Cmax in C57 mouse at 3 mg/kg, po; assay type: ADME, organism-based; parameters: dose 3 mg/kg, route oral; conditions: in vivo
[8] = Tmax in C57 mouse at 3 mg/kg, po; assay type: ADME, organism-based; parameters: dose 3 mg/kg, route oral; conditions: in vivo
[9] = AUC (0 to infinity) in C57 mouse at 3 mg/kg, iv; assay type: ADME, organism-based; parameters: time infinity, dose 3 mg/kg, route intravenous; conditions: plasma
[10] = (§1) AUC (0 to infinity) in Sprague-Dawley rat at 3 mg/kg, iv; assay type: ADME, organism-based, Plasma; parameters: time infinity, dose 3 mg/kg, route intravenous; conditions: Sprague-Dawley, plasma
[11] = Cmax in Sprague-Dawley rat at 30 mg/kg, po; assay type: ADME, organism-based; parameters: dose 30 mg/kg, route oral; conditions: in vivo
[12] = Tmax in Sprague-Dawley rat 30 mg/kg, po; assay type: ADME, organism-based; parameters: dose 30 mg/kg, route oral; conditions: in vivo
Rattus norvegicus [13] = test: AUC (0 to infinity) in Sprague-Dawley rat at 30 mg/kg, po; assay type: ADME, organism-based, Plasma; parameters: time infinity, dose 30 mg/kg, route oral; conditions: in vivo
Rattus norvegicus [14] = test: Oral bioavailability in Sprague-Dawley rat at 30 mg/kg; assay type: ADME, organism-based; conditions: in vivo
[15] = Cmax in C57 mouse at 30 mg/kg, po; assay type: ADME, organism-based; parameters: dose 30 mg/kg, route oral; conditions: in vivo
[16] = Tmax in C57 mouse at 30 mg/kg, po; assay type: ADME, organism-based; parameters: dose 30 mg/kg, route oral; conditions: in vivo
[17] = AUC (0 to infinity) in C57 mouse at 30 mg/kg, po; assay type: ADME, organism-based; parameters: time infinity, dose 30 mg/kg, route oral; conditions: plasma
[18] = Oral bioavailability in C57 mouse at 30 mg/kg; assay type: ADME, organism-based; conditions: in vivo
Rattus norvegicus [19] = test: as §1; assay type: ADME, organism-based, Plasma; parameters: time infinity, dose 3 mg/kg, route intravenous; conditions: in vivo

SMILES | solubility thermodynamic [1] | also measured
CC(C)OC(=O)C1=CN(C(=O)c2cccc(OCCCN3CCCCC3)c2)CC(C)(C)c2c1[nH]c1ccccc21 | 1040 µg/mL (≈ 1920 µM) | 
CC(C)OC(=O)C1=CN(C(=O)c2ccc(OCCN(C)C)cc2)CC(C)(C)c2c1[nH]c1ccccc21 | 17 µg/mL (≈ 34.7 µM) | 
CC(C)OC(=O)C1=CN(C(=O)c2ccc(OCCN3CCOCC3)cc2)CC(C)(C)c2c1[nH]c1cc(F)ccc21.Cl | > 6000 µg/mL | 
CC(C)OC(=O)C1=CN(C(=O)c2cccc(OCCCN3CCN(C)CC3)c2)CC(C)(C)c2c1[nH]c1ccccc21 | 1740 µg/mL (≈ 3110 µM) | 
CC(C)OC(=O)C1=CN(C(=O)c2cccc(OCCN3CCCCC3)c2)CC(C)(C)c2c1[nH]c1ccccc21 | 111 µg/mL (≈ 210 µM) | 
CC(C)OC(=O)C1=CN(C(=O)c2ccc(CN3CCOCC3)cc2)CC(C)(C)c2c1[nH]c1ccccc21 | 245 µg/mL (≈ 488 µM) | 
CC(C)OC(=O)C1=CN(C(=O)c2ccc(CN3CCOCC3)cc2)CC(C)(C)c2c1[nH]c1cc(F)ccc21 | 380 µg/mL (≈ 731 µM) | 
CC(C)OC(=O)C1=CN(C(=O)c2ccc(OCCN3CCCCC3)cc2)CC(C)(C)c2c1[nH]c1ccccc21 | 80 µg/mL (≈ 151 µM) | 
CC(C)OC(=O)C1=CN(C(=O)c2cccc(OCCN3CCOCC3)c2)CC(C)(C)c2c1[nH]c1ccccc21 | 155 µg/mL (≈ 292 µM) | 
CC(C)OC(=O)C1=CN(C(=O)c2ccc(OCCCN(C)C)cc2)CC(C)(C)c2c1[nH]c1ccccc21 | 2470 µg/mL (≈ 4900 µM) | 
CC(C)OC(=O)C1=CN(C(=O)c2ccc(OCCN3CCOCC3)cc2)CC(C)(C)c2c1[nH]c1cc(F)ccc21 | 280 µg/mL (≈ 509 µM) | Cmax [11]: 35 ng/mL; Tmax [12]: 1.7 h; AUC (Rattus norvegicus [13]): 193 ng·h/mL; F (Rattus norvegicus [14]): 25%; Cmax [15]: 1130 ng/mL; Tmax [16]: 1 h; AUC(0-inf) [17]: 6700 ng·h/mL; bioavailability [18]: 53%; AUC(0-inf) [9]: 1260 ng·h/mL; AUC (Rattus norvegicus [19]): 781 ng·h/mL
CC(C)OC(=O)C1=CN(C(=O)c2cccc(OCCN(C)C)c2)CC(C)(C)c2c1[nH]c1ccccc21 | 536 µg/mL (≈ 1090 µM) | 
CC(C)OC(=O)C1=CN(C(=O)c2ccc(OCCN3CCN(C)CC3)cc2)CC(C)(C)c2c1[nH]c1ccccc21 | 82 µg/mL (≈ 151 µM) | 

Second part, led by results:

solubility thermodynamic [1] | SMILES | also measured
1220 µg/mL (≈ 2240 µM) | CC(C)OC(=O)C1=CN(C(=O)c2ccc(OCCCN3CCCCC3)cc2)CC(C)(C)c2c1[nH]c1ccccc21 | 
250 µg/mL (≈ 444 µM) | CC(C)OC(=O)C1=CN(C(=O)c2ccc(OCCCN3CCOCC3)cc2)CC(C)(C)c2c1[nH]c1cc(F)ccc21 | AUC(0-inf) [2]: 361 ng·h/mL; Tmax [3]: 2 h; bioavailability [4]: 38%; AUC(0-inf) [5]: 370 ng·h/mL; Cmax [6]: 68 ng/mL; Cmax [7]: 81 ng/mL; Tmax [8]: 1 h; AUC(0-inf) [9]: 1720 ng·h/mL; AUC(0-inf) [10]: 960 ng·h/mL
2330 µg/mL (≈ 4400 µM) | CC(C)OC(=O)C1=CN(C(=O)c2ccc(OCCCN3CCCC3)cc2)CC(C)(C)c2c1[nH]c1ccccc21 | 
80 µg/mL (≈ 150 µM) | CC(C)OC(=O)C1=CN(C(=O)c2ccc(OCCN3CCOCC3)cc2)CC(C)(C)c2c1[nH]c1ccccc21 | 
200 µg/mL (≈ 367 µM) | CC(C)OC(=O)C1=CN(C(=O)c2ccc(OCCCN3CCOCC3)cc2)CC(C)(C)c2c1[nH]c1ccccc21 | 
5920 µg/mL | CC(C)OC(=O)C1=CN(C(=O)c2ccc(OCCCN3CCOCC3)cc2)CC(C)(C)c2c1[nH]c1cc(F)ccc21.Cl | 
1140 µg/mL (≈ 2040 µM) | CC(C)OC(=O)C1=CN(C(=O)c2ccc(OCCCN3CCN(C)CC3)cc2)CC(C)(C)c2c1[nH]c1ccccc21 | 
24 µg/mL (≈ 46.5 µM) | CC(C)OC(=O)C1=CN(C(=O)c2ccc(OCCN3CCCC3)cc2)CC(C)(C)c2c1[nH]c1ccccc21 | 
118 µg/mL (≈ 216 µM) | CC(C)OC(=O)C1=CN(C(=O)c2cccc(OCCCN3CCOCC3)c2)CC(C)(C)c2c1[nH]c1ccccc21 | 

Reference: ChEMBL document CHEMBL1156884, “Improvement of physiochemical properties of the tetrahydroazepinoindole series of farnesoid X receptor (FXR) agonists: beneficial modulation of lipids in primates” (J Med Chem, 2010)
